This passage reports inhibition results from US8236827B2, “Compounds” (Spear Therapeutics Limited, priority 2009, dated 2012).

Experiment in all cases: Cerep kinase screen
What all share (type): biochemical
Conditions in all cases: read-out: % Inhibition of Control

One test has as its target C-Met (HGFR) (Homo sapiens, UniProt P08581). The method, then:
(§1) Kinase screening was performed by Cerep Laboratories (Celle l′Evescault, France). Compounds were screened in duplicate at a single concentration (10 μM). The results, set forth in Table 4 below, are expressed as percent inhibition of control specific activity: {100−[(measured specific activity/control specific activity)×100]} obtained in the presence of Compound XI and Compound V. ATP concentrations correspond to the ATP Km value for each individual kinase (Cerep, private communication). In each experiment, a reference compound was tested concurrently with Compound XI and Compound V in order to assess the assay reliability. IC50 values for the reference compounds were within accepted limits (±0.5 log units) of the historic average.

The target in the next test is Fyn (Homo sapiens, UniProt P06241). The method, then: as §1
Another test addresses FGFR2 (Homo sapiens, UniProt P21802). The method, then: as §1
Another test concerns the target FLT-1 (Homo sapiens, UniProt P17948). The method, then: as §1
The next test addresses FGFR4 (Homo sapiens, UniProt P22455). On the procedure: as §1
In the next test the target is CSK (Homo sapiens, UniProt P41240). The method, then: as §1
A further test deals with Lyn (Homo sapiens, UniProt P07948). The method, then:
as §1

The target of another test is KDR (VEGFR2) (Homo sapiens, UniProt P35968). The method, then: as §1
The target in a further test is FLT-3 (Homo sapiens, UniProt P36888). The method, then: as §1
For another test, the target named is PDGFRβ (Homo sapiens, UniProt P09619). On the procedure: as §1

As usually defined, the inhibition is the drop in the measured response relative to a control, in per cent.

Molecules are shown by their SMILES.

FLT-3, sequence (P36888 27-993, species assumed): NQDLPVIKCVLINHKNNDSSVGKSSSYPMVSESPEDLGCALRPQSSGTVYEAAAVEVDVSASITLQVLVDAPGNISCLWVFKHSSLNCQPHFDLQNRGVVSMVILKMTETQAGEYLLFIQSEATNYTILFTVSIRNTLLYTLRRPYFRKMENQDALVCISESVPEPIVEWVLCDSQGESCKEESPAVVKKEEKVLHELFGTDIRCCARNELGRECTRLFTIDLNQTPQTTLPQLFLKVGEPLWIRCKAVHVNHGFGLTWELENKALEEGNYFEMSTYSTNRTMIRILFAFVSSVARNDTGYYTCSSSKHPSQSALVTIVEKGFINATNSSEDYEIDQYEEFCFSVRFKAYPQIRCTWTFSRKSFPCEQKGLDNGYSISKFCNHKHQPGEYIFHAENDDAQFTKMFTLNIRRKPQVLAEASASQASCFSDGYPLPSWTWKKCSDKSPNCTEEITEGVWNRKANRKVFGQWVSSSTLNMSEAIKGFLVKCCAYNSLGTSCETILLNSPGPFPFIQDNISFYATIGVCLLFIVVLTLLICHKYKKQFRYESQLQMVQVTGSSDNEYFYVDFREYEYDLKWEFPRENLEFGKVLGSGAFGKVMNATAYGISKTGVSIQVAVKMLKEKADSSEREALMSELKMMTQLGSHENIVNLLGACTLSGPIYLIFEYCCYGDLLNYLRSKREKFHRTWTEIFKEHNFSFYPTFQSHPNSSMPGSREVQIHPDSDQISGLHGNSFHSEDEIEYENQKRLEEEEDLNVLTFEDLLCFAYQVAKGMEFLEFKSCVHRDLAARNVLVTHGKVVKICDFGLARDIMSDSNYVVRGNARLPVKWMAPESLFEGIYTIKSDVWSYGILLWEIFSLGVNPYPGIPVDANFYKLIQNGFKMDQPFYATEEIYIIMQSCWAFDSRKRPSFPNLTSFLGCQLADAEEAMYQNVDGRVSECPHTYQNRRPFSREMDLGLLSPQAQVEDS
KDR (VEGFR2), sequence (P35968 20-1356, species assumed): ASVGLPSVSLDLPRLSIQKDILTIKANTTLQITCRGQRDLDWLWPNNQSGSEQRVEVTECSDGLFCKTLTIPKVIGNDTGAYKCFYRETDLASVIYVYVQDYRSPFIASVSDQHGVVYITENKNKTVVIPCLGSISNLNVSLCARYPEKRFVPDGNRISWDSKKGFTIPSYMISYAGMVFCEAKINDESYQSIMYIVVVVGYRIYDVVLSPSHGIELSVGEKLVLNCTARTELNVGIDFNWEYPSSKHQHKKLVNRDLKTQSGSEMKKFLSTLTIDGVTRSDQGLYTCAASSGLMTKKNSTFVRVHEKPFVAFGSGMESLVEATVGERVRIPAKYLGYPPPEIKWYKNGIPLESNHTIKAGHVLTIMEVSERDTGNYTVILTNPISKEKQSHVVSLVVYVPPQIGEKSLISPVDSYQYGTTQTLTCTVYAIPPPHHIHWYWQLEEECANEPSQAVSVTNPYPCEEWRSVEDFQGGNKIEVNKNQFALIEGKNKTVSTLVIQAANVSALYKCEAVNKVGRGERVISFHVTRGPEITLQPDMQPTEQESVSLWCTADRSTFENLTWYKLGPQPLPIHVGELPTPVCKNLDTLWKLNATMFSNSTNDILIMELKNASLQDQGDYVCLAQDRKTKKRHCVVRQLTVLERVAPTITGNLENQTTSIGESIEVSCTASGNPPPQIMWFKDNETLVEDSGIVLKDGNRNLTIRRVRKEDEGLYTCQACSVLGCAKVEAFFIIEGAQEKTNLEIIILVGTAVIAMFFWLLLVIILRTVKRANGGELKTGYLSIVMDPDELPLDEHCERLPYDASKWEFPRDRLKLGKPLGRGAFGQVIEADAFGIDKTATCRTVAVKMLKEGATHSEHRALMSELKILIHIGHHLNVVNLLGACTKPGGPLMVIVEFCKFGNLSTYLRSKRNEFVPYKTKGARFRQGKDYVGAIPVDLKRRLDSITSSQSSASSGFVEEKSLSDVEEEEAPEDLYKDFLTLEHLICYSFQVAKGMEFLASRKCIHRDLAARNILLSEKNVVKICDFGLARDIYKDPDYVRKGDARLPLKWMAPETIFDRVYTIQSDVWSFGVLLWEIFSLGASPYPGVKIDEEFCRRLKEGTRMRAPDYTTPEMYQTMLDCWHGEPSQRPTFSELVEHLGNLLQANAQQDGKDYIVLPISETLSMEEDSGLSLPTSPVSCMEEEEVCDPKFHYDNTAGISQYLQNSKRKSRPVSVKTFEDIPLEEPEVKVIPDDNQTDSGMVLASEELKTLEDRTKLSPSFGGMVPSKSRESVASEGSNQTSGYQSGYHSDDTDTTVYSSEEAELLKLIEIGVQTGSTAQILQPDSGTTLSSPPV
Lyn, sequence (P07948 whole entry, species assumed): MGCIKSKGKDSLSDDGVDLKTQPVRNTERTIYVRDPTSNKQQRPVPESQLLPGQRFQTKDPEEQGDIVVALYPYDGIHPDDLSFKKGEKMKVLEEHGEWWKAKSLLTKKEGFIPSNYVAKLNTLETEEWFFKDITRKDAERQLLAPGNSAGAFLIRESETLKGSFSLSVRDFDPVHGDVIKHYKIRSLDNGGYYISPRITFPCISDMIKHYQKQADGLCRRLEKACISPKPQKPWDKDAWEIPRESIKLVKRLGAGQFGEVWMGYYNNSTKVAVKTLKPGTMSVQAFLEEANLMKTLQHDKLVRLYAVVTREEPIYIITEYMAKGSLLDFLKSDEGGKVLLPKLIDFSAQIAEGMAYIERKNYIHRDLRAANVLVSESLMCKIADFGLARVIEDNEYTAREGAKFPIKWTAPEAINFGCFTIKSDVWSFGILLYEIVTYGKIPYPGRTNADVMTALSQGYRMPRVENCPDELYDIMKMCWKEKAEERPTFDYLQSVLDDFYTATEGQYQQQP
CSK, sequence (P41240 whole entry, species assumed): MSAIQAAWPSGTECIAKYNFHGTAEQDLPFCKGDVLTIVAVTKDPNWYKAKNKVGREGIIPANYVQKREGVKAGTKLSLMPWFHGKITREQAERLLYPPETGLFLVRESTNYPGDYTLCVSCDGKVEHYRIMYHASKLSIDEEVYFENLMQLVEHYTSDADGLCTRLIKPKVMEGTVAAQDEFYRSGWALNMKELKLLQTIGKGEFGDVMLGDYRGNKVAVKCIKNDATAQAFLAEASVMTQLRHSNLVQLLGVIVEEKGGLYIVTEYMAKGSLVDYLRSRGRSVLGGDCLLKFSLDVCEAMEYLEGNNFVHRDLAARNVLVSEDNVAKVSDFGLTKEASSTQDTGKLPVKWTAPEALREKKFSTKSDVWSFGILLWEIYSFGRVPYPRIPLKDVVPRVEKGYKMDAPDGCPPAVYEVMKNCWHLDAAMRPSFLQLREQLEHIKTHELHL
PDGFRβ, sequence (P09619 33-1106, species assumed): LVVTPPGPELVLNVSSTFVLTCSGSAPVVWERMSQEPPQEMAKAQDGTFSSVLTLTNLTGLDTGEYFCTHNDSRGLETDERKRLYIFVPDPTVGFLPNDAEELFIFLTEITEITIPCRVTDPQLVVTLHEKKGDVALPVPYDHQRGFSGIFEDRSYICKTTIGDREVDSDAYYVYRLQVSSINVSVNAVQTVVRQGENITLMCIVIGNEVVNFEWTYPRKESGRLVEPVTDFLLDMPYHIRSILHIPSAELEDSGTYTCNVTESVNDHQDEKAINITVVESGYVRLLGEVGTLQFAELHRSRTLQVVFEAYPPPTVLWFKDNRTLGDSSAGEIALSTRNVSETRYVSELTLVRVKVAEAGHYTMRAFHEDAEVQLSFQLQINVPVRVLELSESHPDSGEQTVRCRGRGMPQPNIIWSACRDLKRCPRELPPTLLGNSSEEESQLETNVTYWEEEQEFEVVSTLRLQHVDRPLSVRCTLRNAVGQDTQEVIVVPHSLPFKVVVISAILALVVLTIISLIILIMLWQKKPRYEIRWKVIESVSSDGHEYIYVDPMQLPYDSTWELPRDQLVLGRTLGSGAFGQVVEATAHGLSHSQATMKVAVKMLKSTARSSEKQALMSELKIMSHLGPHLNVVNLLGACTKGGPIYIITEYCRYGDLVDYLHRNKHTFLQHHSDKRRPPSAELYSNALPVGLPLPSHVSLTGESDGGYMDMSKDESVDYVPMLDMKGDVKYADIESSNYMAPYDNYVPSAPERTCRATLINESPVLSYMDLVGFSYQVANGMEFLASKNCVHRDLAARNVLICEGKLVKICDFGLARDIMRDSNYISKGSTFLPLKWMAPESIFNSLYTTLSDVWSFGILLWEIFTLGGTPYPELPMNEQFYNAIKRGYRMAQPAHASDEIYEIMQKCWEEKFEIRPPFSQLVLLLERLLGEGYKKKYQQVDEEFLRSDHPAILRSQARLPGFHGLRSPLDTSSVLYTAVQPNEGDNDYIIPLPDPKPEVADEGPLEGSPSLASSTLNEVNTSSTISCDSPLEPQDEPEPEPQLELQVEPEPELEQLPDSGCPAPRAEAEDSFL
Fyn, sequence (P06241 whole entry, species assumed): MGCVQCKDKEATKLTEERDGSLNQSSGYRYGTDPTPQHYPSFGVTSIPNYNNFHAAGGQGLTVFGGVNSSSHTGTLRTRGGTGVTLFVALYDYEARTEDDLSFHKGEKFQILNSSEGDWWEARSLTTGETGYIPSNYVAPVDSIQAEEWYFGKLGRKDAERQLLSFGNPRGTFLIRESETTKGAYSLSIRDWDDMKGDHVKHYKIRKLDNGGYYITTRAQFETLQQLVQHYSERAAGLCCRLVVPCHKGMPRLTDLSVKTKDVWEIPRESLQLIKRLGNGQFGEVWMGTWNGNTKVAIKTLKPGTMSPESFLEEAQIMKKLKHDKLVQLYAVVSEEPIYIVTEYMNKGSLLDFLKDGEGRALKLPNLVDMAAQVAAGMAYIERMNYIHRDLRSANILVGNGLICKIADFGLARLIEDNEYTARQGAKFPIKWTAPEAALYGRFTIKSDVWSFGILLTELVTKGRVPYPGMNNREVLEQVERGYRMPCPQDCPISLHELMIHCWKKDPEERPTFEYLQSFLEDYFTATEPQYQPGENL

In the case of `COc1ccc(-c2cc(-c3ccc4c(c3)OCO4)cc(=O)[nH]2)cc1OC` [Compound V], the inhibition at 10 µM at C-Met (HGFR) was -5%; on Fyn, 25%; on FGFR2 it was 13%; on FLT-1 it was 11%; on FGFR4 it was -3%; on CSK, 4%. Moreover, the inhibition at 10 µM at Lyn is -1%; at KDR (VEGFR2) it was 19%; at FLT-3, 21%; on PDGFRβ it was 7%.
